Tested on: ECAC2 mRNA in Caco-2 cells
Assay type: cell-based
Experimental: The mRNA Expression Assay of ECAC2 in Caco-2 Cells
The dispersed cells were plated in 48-well plate at a concentration of 6.3×10^4 cells/well and incubated for 4 days at 37° C. The culture medium (Dulbecco's Modified Eagle Medium (D-MEM) without NaHCO3 with 44 mM NaHCO3, 1 mM non-essential amino acids, and 2 mM L-glutamine, 90%; fetal bovine serum, 10%) was then replaced with the same medium containing various concentrations of LG190178 (the compound disclosed in WO00/10958 and the corresponding U.S. Pat. No. 6,218,430 B1) or the compounds of the present invention, and cells were cultured for 1 day at 37° C. The culture medium containing the compounds was changed twice per day.
Total RNA Isolation from Caco-2 Cell
Total RNA was isolated from Caco-2 cell following ABI PRISM™ 6100 Nucleic Acid PrepStation protocol from Applied Biosystems.
Real Time RT-PCR Assay of ECAC2
ECAC2 mRNA expression was determined using TaqMan One-step RT-PCR Master Mix Reagents Kit and PRISM7000 systems from Applied Biosystems.
Primer information and cycle conditions are 1)ECAC2, forward 5′-[…]-3′, reverse 5′-GTCCTCTGTCTGGMGATGA-3′, Taqman probe 5′-[…]-3′, 55 cycles, annealing temperature (Ta)=60° C.; 2)GAPDH, forward 5′-GMGGTGMGGTCGGAGTC-3′, reverse 5′-GMGATGGTGATGGGATTTC-3′, Taqman probe 5′-[…]-3′, 55 cycles, Ta=60° C. ECAC2 mRNA values were normalized for the expression of GAPDH mRNA within each sample.
Comparison of ECAC2 mRNA Value
The EC50 values of ECAC2 mRNA values were analyzed by Emax models. The ECAC2 mRNA ratio was calculated as the ratio of the EC50 value of the compounds to that of LG190178. ECAC2 is a channel-like transporter mediating intestinal calcium absorption. It is described in J Biol Chem. Aug. 6, 1999; 274(32):22739-46 for example.

Row | SMILES | ECaC-2 mRNA induction activity in Caco-2 cells [%]
1 | CCC(O)(/C=C/c1ccc(C(CC)(CC)c2ccc(OCc3ccc(C(=O)O)cc3)c(C)c2)cc1C)CC [Example 147, 4-(4-{I-Ethyl-1-[4-((E)-3-ethyl-3-hydroxy-pent-1-enyl)-3-methyl-phenyl]-propyl}-2-methyl-phenoxymethyl)-benzoic acid] | 75
2 | CCc1cc(C(CC)(CC)c2ccc(C(=O)N[C@H](C)C(=O)O)s2)ccc1OCC(C)(O)C(C)(C)C (single isomer, unassigned) [Compound B, reference compound] | 15
3 | CCC(CC)(c1ccc(/C=C/C(O)(C(F)(F)F)C(F)(F)F)c(C)c1)c1ccc(OCCCCc2nnn[nH]2)c(C)c1 [Example 115, (E)-4-[4-(1-ethyl-1-{3-methyl-4-[4-(1 H-tetrazol-5-yl)-butoxy]-phenyl}-propyl)-2-methyl-phenyl]-1,1,1-trifluoro-2-trifluoromethyl-but-3-en-2-ol] | 91
4 | CCC(CC)(c1ccc(/C=C/C(O)(C(F)(F)F)C(F)(F)F)c(C)c1)c1ccc(OC[C@@H](O)CCC(=O)O)c(C)c1 [Example 30, (S)-5-(4-{1-ethyl-1-[3-methyl-4-((E)-4,4,4-trifluoro-3-hydroxy-3-trifluoromethyl-but-1-enyl)-phenyl]-propyl}-2-methyl-phenoxy)-4-hydroxy-pentanoic acid] | 1777
5 | CCC(O)(/C=C/c1ccc(C(CC)(CC)c2cc(C)c(OC[C@@H]3CCC(=O)O3)c(C)c2)cc1C)CC [Example 166, (S)-5-(4-{1-Ethyl-1-[4-((E)-3-ethyl-3-hydroxy-pent-1-enyl)-3-methyl-phenyl]-propyl}-2,6-dimethyl-phenoxymethyl)-dihydro-furan-2-one] | 86
6 | CCC(CC)(c1ccc(/C=C/C(O)(C(F)(F)F)C(F)(F)F)c(C)c1)c1ccc(OC[C@H](O)CCCO)c(C)c1 [Example 154, (R)-5-(4-{1-Ethyl-1-[3-methyl4-((E)-4,4,4-trifluoro-3-hydroxy-3-trifluoromethyl-but-1-enyl)-phenyl]-propyl}-2-methyl-phenoxy)-pentane-1,4-diol] | 1784
7 | CCC(CC)(c1ccc(C#CC(O)C(C)(C)C)c(C)c1)c1ccc(OC[C@@H](O)CCC(=O)O)c(C)c1 (stereo partly drawn) [Example 27, 5-(4-{1-ethyl-1-[4-(3-hydroxy-4,4-dimethyl-pent-1-ynyl)-3-methyl-phenyl]-propyl}-2-methyl-phenoxy)-4(S)-hydroxy-pentanoic acid] | 114
8 | CCC(CC)(c1ccc(C#CC(O)(C(F)(F)F)C(F)(F)F)c(C)c1)c1ccc(OC[C@@H](O)CCCO)c(C)c1 [Example 153, (S)-5-(4-{1-Ethyl-1-[3-methyl-4-(4,4,4-trifluoro-3-hydroxy-3-trifluoromethyl-but-1-ynyl)-phenyl]-propyl}-2-methyl-phenoxy)-pentane-1,4-diol] | 1662
9 | CCC(CC)(c1ccc(/C=C/C(O)(C(F)(F)F)C(F)(F)F)c(C)c1)c1ccc(OC[C@H]2CCC(=O)O2)c(C)c1 [Example 48, (R)-5-(4-{1-ethyl-1-[3-methyl-4-((E)-4,4,4-trifluoro-3-hydroxy-3-trifluoromethyl-but-1-enyl)-phenyl]-propyl}-2-methyl-phenoxymethyl)-dihydro-furan-2-one] | 519
10 | CCC(CC)(c1ccc(/C=C/C(O)(C(F)(F)F)C(F)(F)F)c(C)c1)c1ccc(OC[C@@H](O)CCCC(=O)O)c(C)c1 [Example 56, (S)-6-(4-{1-Ethyl-1-[3-methyl-4-((E)4,4,4-trifluoro-3-hydroxy-3-trifluoromethyl-but-1-enyl)-phenyl]-propyl}-2-methyl-phenoxy)-5-hydroxy-hexanoic acid] | 276
11 | CCC(CC)(c1ccc(/C=C/C(O)(C(F)(F)F)C(F)(F)F)c(C)c1)c1ccc(OC[C@H]2CCCC(=O)O2)c(C)c1 [Example 61, (R)-6-(4-{1-ethyl-1-[3-methyl4-((E)4,4,4-trifluoro-3-hydroxy-3-trifluoromethyl-but-1-enyl)-phenyl]-propyl}-2-methyl-phenoxymethyl)-tetrahydro-pyran-2-one] | 918
12 | CCC(CC)(c1ccc(CCC(O)(C(F)(F)F)C(F)(F)F)c(C)c1)c1ccc(OCC(CO)CO)c(C)c1 [Example 79, 2-(4-{1-ethyl-1-[3-methyl-4-(4,4,4-trifluoro-3-hydroxy-3-trifluoromethyl-butyl)-phenyl]-propyl}-2-methyl-phenoxymethyl)-propane-1,3-diol] | 178
13 | CCC(CC)(c1ccc(/C=C/C(O)C(C)(C)C)c(C)c1)c1ccc(OCC(CO)CO)c(C)c1 (stereo not drawn) [Example 75, 2-(4-{1-ethyl-1-[4-((E)-3-hydroxy-4,4-dimethyl-pent-1-enyl)-3-methyl-phenyl]-propyl}-2-methyl-phenoxymethyl)-propane-1,3-diol] | 309
14 | CCC(CC)(c1ccc(C#CC(O)C(C)(C)C)c(C)c1)c1ccc(OC[C@@H](O)CO)c(C)c1 (stereo partly drawn) [Example 66, 3-(4-{1-ethyl-1-[4-(3-hydroxy-4,4-dimethyl-pent-1-ynyl)-3-methyl-phenyl]-propyl}-2-methyl-phenoxy)-propane-1,2(S)-diol] | 126
15 | CCC(CC)(c1ccc(/C=C/C(O)(C(F)(F)F)C(F)(F)F)c(C)c1)c1ccc(OCCCCCC(=O)O)c(C)c1 [Example 92, 6-(4-{1-Ethyl-1-[3-methyl-4-((E)4,4,4-trifluoro-3-hydroxy-3-trifluoromethyl-but-1-enyl)-phenyl]-propyl}-2-methyl-phenoxy)-hexanoic acid] | 226
16 | CCC(CC)(c1ccc(CCC(O)C(C)(C)C)c(C)c1)c1ccc(OCCCCCN)c(C)c1 (stereo not drawn) [Example 102, 1-(4-{1-[4-(5-amino-pentyloxy)-3-methyl-phenyl]-1-ethyl-propyl}-2-methyl-phenyl)-4,4-dimethyl-pentan-3-ol] | 166
17 | CCC(CC)(c1ccc(/C=C/C(O)(C(F)(F)F)C(F)(F)F)c(C)c1)c1ccc(CCC(=O)O)c(C)c1 [Example 107, 3-(4-{1-ethyl-1-[3-methyl-4-((E)-4,4,4-trifluoro-3-hydroxy-3-trifluoromethyl-but-1-enyl)-phenyl]-propyl}-2-methyl-phenyl)-propionic acid] | 823
18 | CCC(O)(/C=C/c1ccc(C(CC)(CC)c2ccc(OC[C@@H](O)CO)c(C)c2)cc1C)CC [Example 64, (S)-3-(4-{1-ethyl-1-[4-((E)-3-ethyl-3-hydroxy-pent-1-enyl)-3-methyl-phenyl]-propyl}-2-methyl-phenoxy)-propane-1,2-diol] | 90
19 | CCC(CC)(c1ccc(C#CC(O)(C(F)(F)F)C(F)(F)F)c(C)c1)c1ccc(CCC(=O)O)c(C)c1 [Example 106, 3-(4-{1-ethyl-1-[3-methyl-4-(4,4,4-trifluoro-3-hydroxy-3-trifluoromethyl-but-1-ynyl)-phenyl]-propyl}-2-methyl-phenyl)-propionic acid] | 399
20 | CCC(CC)(c1ccc(CCC(O)C(C)(C)C)c(C)c1)c1ccc(OCCCCC(=O)O)c(C)c1 (stereo not drawn) [Example 80, 5-(4-{1-ethyl-1-[4-(3-hydroxy-4,4-dimethyl-pentyl)-3-methyl-phenyl]-propyl}-2-methyl-phenoxy)-pentanoic acid] | 518
21 | CCC(CC)(c1ccc(C#CC(O)(C(F)(F)F)C(F)(F)F)c(C)c1)c1ccc(OC[C@H](O)CCCC(=O)O)c(C)c1 [Example 60, (R)-6-(4-{1-ethyl-1-[3-methyl4-(4,4,4-trifluoro-3-hydroxy-3-trifluoromethyl-but-1-ynyl)-phenyl]-propyl}-2-methyl-phenoxy)-5-hydroxy-hexanoic acid] | 235
22 | CCC(O)(/C=C/c1ccc(C(CC)(CC)c2ccc(OCC(CO)CO)c(C)c2)cc1C)CC [Example 72, 2-(4-{1-Ethyl-1-[4-((E)-3-ethyl-3-hydroxy-pent-1-enyl)-3-methyl-phenyl]-propyl}-2-methyl-phenoxymethyl)-propane-1,3-diol] | 542
23 | CCC(CC)(c1ccc(/C=C/C(O)(C(F)(F)F)C(F)(F)F)c(C)c1)c1ccc(OCCCCCN)c(C)c1 [Example 125, (E)4-(4-{1-[4-(5-Amino-pentyloxy)-3-methyl-phenyl]-1-ethyl-propyl}-2-methyl-phenyl)-1,1,1-trifluoro-2-trifluoromethyl-but-3-en-2-ol] | <10
24 | CCC(CC)(c1ccc(/C=C/C2(O)CCCCC2)c(C)c1)c1ccc(OCCCCC(=O)O)c(C)c1 [Example 88, 5-[4-(1-ethyl-1-{4-[(E)-2-(1-hydroxy-cyclohexyl)-vinyl]-3-methyl-phenyl}-propyl)-2-methyl-phenoxy]-pentanoic acid] | 845

Reference: patent US20060025474A1, “Bisphenyl compounds useful as vitamin D3 receptor agonists” (priority 2004, published 2006)
